From PMC9939323 (Acta Pharmaceutica Sinica. B, 2022)

Key:
[1] = molecular target: neuraminidase (NA) of H1N1 (A/PR/8/34) (Influenza A virus (A/Puerto Rico/8/1934(H1N1)), UniProt P03468); assay: NA-Fluor fluorescence assay, whole virus; type: biochemical; conditions: read-out: % inhibition at 10 μmol/L
[2] = molecular target: neuraminidase (NA) of H1N1 (A/PR/8/34) (Influenza A virus (A/Puerto Rico/8/1934(H1N1)), UniProt P03468); assay: NA-Fluor fluorescence assay, whole virus; type: biochemical; conditions: NA-Fluor substrate, […] °C, […] min preincubation, […] h

Sequence of neuraminidase (NA) of H1N1 (A/PR/8/34) (Influenza A virus (A/Puerto Rico/8/1934(H1N1)), UniProt P03468) (P03468 whole entry): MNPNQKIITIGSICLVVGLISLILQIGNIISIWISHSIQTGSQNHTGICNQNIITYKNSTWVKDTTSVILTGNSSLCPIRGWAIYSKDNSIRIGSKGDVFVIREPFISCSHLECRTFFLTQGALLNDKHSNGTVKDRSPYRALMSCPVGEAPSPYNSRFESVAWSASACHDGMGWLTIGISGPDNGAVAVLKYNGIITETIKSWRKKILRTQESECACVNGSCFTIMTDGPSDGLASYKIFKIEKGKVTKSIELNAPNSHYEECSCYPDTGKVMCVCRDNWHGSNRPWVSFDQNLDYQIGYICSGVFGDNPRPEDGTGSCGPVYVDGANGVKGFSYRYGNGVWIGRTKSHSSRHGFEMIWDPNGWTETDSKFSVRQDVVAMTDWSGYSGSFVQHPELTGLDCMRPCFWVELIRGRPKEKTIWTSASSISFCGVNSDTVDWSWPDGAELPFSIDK

**Q.** `Oc1ccc([C@H]2c3c(O)cc(O)cc3[C@H]3c4c(cc(O)cc4[C@@H]2c2cc(/C=C/c4cc(O)cc5c4[C@H](c4cc(O)cc(O)c4)[C@@H](c4ccc(O)cc4)O5)ccc2O)O[C@@H]3c2ccc(O)cc2)cc1` [vitisin A] was tested. Which inhibition at 10 µM [1] did it give?
**A.** 43%

**Q.** `Oc1ccc(/C=C/c2cc(O)cc3c2[C@@H](c2cc(O)cc(O)c2)[C@H](c2ccc(O)cc2)O3)cc1` [ε-viniferin] was tested. Which “% inhibition at 10 μmol/L” value [2] did it give?
**A.** Ampelopsin A and ε-viniferin exhibited weak inhibitory effects
